{"source": "patent US6982348B2", "about": "“Aminoethanol derivatives” (Takeda Pharmaceutical Company Limited, priority 2001, dated 2006)", "data": [{"units": {"melting point": "°C"}, "values": [{"compound": "O=C(CCc1ccccc1)N[C@H](Cc1ccc(C(F)(F)F)cc1)[C@@H](O)c1ccccc1", "note": "(racemic) [Example 175, N-((1RS,2SR)-2-hydroxy-2-phenyl-1-((4-(trifluoromethyl)phenyl)methyl)ethyl)-3-phenylpropanamide]", "melting point": "147 to 148"}, {"compound": "O=C(N[C@H](Cc1ccc(C(F)(F)F)cc1)[C@@H](O)c1cccc(F)c1)c1ccc(F)c2ccccc12", "note": "(racemic) [Example 176, 4-fluoro-N-((1RS,2SR)-2-(3-fluorophenyl)-2-hydroxy-1-((4-(trifluoromethyl)phenyl)methyl)ethyl)-1-naphthalenecarboxamide]", "melting point": "200 to 201"}, {"compound": "O=C(CCc1ccccc1)N[C@H](Cc1ccc(C(F)(F)F)cc1)[C@@H](O)c1cccc(F)c1", "note": "(racemic) [Example 178, N-((1RS,2SR)-2-(3-fluorophenyl)-2-hydroxy-1-((4-(trifluoromethyl)phenyl)methyl)ethyl)-3-phenylpropanamide]", "melting point": "151 to 152"}, {"compound": "O=C(N[C@H](Cc1ccc(C(F)(F)F)cc1)[C@@H](O)c1ccccc1F)c1ccc(F)c2ccccc12", "note": "(racemic) [Example 179, 4-fluoro-N-((1RS,2SR)-2-(2-fluorophenyl)-2-hydroxy-1-((4-(trifluoromethyl)phenyl)methyl)ethyl)-1-naphthalenecarboxamide]", "melting point": "190 to 191"}, {"compound": "O=C(CCc1ccccc1)N[C@H](Cc1ccc(C(F)(F)F)cc1)[C@@H](O)c1ccccc1F", "note": "(racemic) [Example 180, N-((1RS,2SR)-2-(2-fluorophenyl)-2-hydroxy-1-((4-(trifluoromethyl)phenyl)methyl)ethyl)-3-phenylpropanamide]", "melting point": "124 to 125"}, {"compound": "O=C(N[C@H](Cc1ccc(C(F)(F)F)cc1)[C@@H](O)c1ccc(F)cc1F)c1ccc(F)c2ccccc12", "note": "(racemic) [Example 181, N-((1RS,2SR)-2-(2,4-difluorophenyl)-2-hydroxy-1-((4-(trifluoromethyl)phenyl)methyl)ethyl)-4-fluoro-1-naphthalenecarboxamide]", "melting point": "194 to 195"}, {"compound": "O=C(CCc1ccccc1)N[C@H](Cc1ccc(C(F)(F)F)cc1)[C@@H](O)c1ccc(F)cc1F", "note": "(racemic) [Example 182, N-((1RS,2SR)-2-(2,4-difluorophenyl)-2-hydroxy-1-((4-(trifluoromethyl)phenyl)methyl)ethyl)-3-phenylpropanamide]", "melting point": "126 to 127"}, {"compound": "O=C(N[C@H](Cc1ccc(C(F)(F)F)cc1)[C@@H](O)c1ccc(F)c(F)c1)c1ccc(F)c2ccccc12", "note": "(racemic) [Example 183, N-((1RS,2SR)-2-(3,4-difluorophenyl)-2-hydroxy-1-((4-(trifluoromethyl)phenyl)methyl)ethyl)-4-fluoro-1-naphthalenecarboxamide]", "melting point": "197 to 198"}, {"compound": "O=C(CCc1ccccc1)N[C@H](Cc1ccc(C(F)(F)F)cc1)[C@@H](O)c1ccc(F)c(F)c1", "note": "(racemic) [Example 184, N-((1RS,2SR)-2-(3,4-difluorophenyl)-2-hydroxy-1-((4-(trifluoromethyl)phenyl)methyl)ethyl)-3-phenylpropanamide]", "melting point": "114 to 115"}, {"compound": "O=C(N[C@H](Cc1ccc(C(F)(F)F)cc1)[C@@H](O)c1cccc2ccccc12)c1cccc2ccccc12", "note": "(racemic) [Example 185, N-((1RS,2SR)-2-hydroxy-2-(1-naphthalenyl)-1-((4-(trifluoromethyl)phenyl)methyl)ethyl)-1-naphthalenecarboxamide]", "melting point": "217 to 218"}, {"compound": "O=C(N[C@H](Cc1ccc(C(F)(F)F)cc1)[C@@H](O)c1cccc2ccccc12)c1ccc(F)c2ccccc12", "note": "(racemic) [Example 186, 4-fluoro-N-((1RS,2SR)-2-hydroxy-2-(1-naphthalenyl)-1-((4-(trifluoromethyl)phenyl)methyl)ethyl)-1-naphthalenecarboxamide]", "melting point": "195 to 196"}, {"compound": "O=C(N[C@H](Cc1ccc(C(F)(F)F)cc1)[C@@H](O)c1cccc2ccccc12)c1ccc2ccccc2c1", "note": "(racemic) [Example 187, N-((1RS,2SR)-2-hydroxy-2-(1-naphthalenyl)-1-((4-(trifluoromethyl)phenyl)methyl)ethyl)-2-naphthalenecarboxamide]", "melting point": "251 to 252"}, {"compound": "O=C(N[C@H](Cc1ccc(C(F)(F)F)cc1)[C@@H](O)c1cccc2ccccc12)c1ccc(F)cc1", "note": "(racemic) [Example 188, 4-fluoro-N-((1RS,2SR)-2-hydroxy-2-(1-naphthalenyl)-1-((4-(trifluoromethyl)phenyl)methyl)ethyl)benzamide]", "melting point": "194 to 195"}, {"compound": "O=C(N[C@H](Cc1ccc(C(F)(F)F)cc1)[C@@H](O)c1cccc2ccccc12)c1ccc(C(F)(F)F)cc1", "note": "(racemic) [Example 189, N-((1RS,2SR)-2-hydroxy-2-(1-naphthalenyl)-1-((4-(trifluoromethyl)phenyl)methyl)ethyl)-4-(trifluoromethyl)benzamide]", "melting point": "232 to 233"}, {"compound": "O=C(N[C@H](Cc1ccc(C(F)(F)F)cc1)[C@@H](O)c1cccc2ccccc12)C1CCCCC1", "note": "(racemic) [Example 190, N-((1RS,2SR)-2-hydroxy-2-(1-naphthalenyl)-1-((4-(trifluoromethyl)phenyl)methyl)ethyl)cyclohexanecarboxamide]", "melting point": "156 to 157"}, {"compound": "O=C(CCCc1cccs1)N[C@H](Cc1ccc(C(F)(F)F)cc1)[C@@H](O)c1cccc2ccccc12", "note": "(racemic) [Example 191, N-((1RS,2SR)-2-hydroxy-2-(1-naphthalenyl)-1-((4-(trifluoromethyl)phenyl)methyl)ethyl)-4-(2-thienyl)butyramide]", "melting point": "139 to 140"}, {"compound": "COc1ccc([C@H](O)[C@@H](Cc2ccc(C(F)(F)F)cc2)NC(=O)c2ccc(F)c3ccccc23)cc1", "note": "(racemic) [Example 192, 4-fluoro-N-((1RS,2SR)-2-hydroxy-2-(4-methoxyphenyl)-1-((4-(trifluoromethyl)phenyl)methyl)ethyl)-1-naphthalenecarboxamide]", "melting point": "184 to 185"}, {"compound": "COc1ccc([C@H](O)[C@@H](Cc2ccc(C(F)(F)F)cc2)NC(=O)CCc2ccccc2)cc1", "note": "(racemic) [Example 193, N-((1RS,2SR)-2-hydroxy-2-(4-methoxyphenyl)-1-((4-(trifluoromethyl)phenyl)methyl)ethyl)-3-phenylpropanamide]", "melting point": "116 to 117"}, {"compound": "O=C(N[C@H](Cc1ccc(C(F)(F)F)cc1)[C@@H](O)c1ccc(Cl)cc1)c1ccc(F)c2ccccc12", "note": "(racemic) [Example 194, N-[(1RS,2SR)-2-(4-chlorophenyl)-2-hydroxy-1-[4-(trifluoromethyl)benzyl]ethyl]-4-fluoronaphthalene-1-carboxamide]", "melting point": "203 to 204"}, {"compound": "O=C(N[C@H](Cc1ccc(C(F)(F)F)cc1)[C@@H](O)c1ccoc1)c1ccc(F)c2ccccc12", "note": "(racemic) [Example 195, 4-fluoro-N-((1RS,2SR)-2-(3-furanyl)-2-hydroxy-1-((4-(trifluoromethyl)phenyl)methyl)ethyl)-1-naphthalenecarboxamide]", "melting point": "206 to 207"}, {"compound": "O=C(CCc1ccccc1)N[C@H](Cc1ccc(C(F)(F)F)cc1)[C@@H](O)c1ccoc1", "note": "(racemic) [Example 196, N-((1RS,2SR)-2-(3-furanyl)-2-hydroxy-1-((4-(trifluoromethyl)phenyl)methyl)ethyl)-3-phenylpropanamide]", "melting point": "134 to 135"}, {"compound": "O=C(N[C@H](Cc1ccc(C(F)(F)F)cc1)[C@@H](O)c1ccc(Cl)s1)c1ccc(F)c2ccccc12", "note": "(racemic) [Example 197, N-[(1RS,2RS)-2-(5-chloro-2-thienyl)-2-hydroxy-1-[4-(trifluoromethyl)benzyl]ethyl]-4-fluoronaphthalene-1-carboxamide]", "melting point": "201 to 203"}, {"compound": "O=C(N[C@H](Cc1ccc(C(F)(F)F)cc1)[C@@H](O)c1ccc(Cl)s1)c1cccc2c1C=CCCC2", "note": "(racemic) [Example 198, N-[(1RS,2RS)-2-(5-chloro-2-thienyl)-2-hydroxy-1-[4-(trifluoromethyl)benzyl]ethyl]-6,7-dihydro-5H-benzo[a]cycloheptene-1-carboxamide]", "melting point": "184 to 185"}, {"compound": "O=C(N[C@H](Cc1ccc(C(F)(F)F)cc1)[C@@H](O)c1ccc(Cl)nc1)c1ccc(F)c2ccccc12", "note": "(racemic) [Example 202, N-((1RS,2SR)-2-(6-chloro-3-pyridyl)-2-hydroxy-1-((4-(trifluoromethyl)phenyl)methyl)ethyl)-4-fluoro-1-naphthalenecarboxamide]", "melting point": "188 to 189"}, {"compound": "O=C(CCc1ccccc1)N[C@H](Cc1ccc(C(F)(F)F)cc1)[C@@H](O)c1ccc(Cl)nc1", "note": "(racemic) [Example 203, N-((1RS,2SR)-2-(6-chloro-3-pyridyl)-2-hydroxy-1-((4-(trifluoromethyl)phenyl)methyl)ethyl)-3-phenylpropanamide]", "melting point": "149 to 150"}, {"compound": "O=C(N[C@H](Cc1ccc(C(F)(F)F)cc1)[C@@H](O)c1cccc(Oc2ccccc2)c1)c1ccc(F)c2ccccc12", "note": "(racemic) [Example 207, N-((1RS,2SR)-2-hydroxy-2-(3-phenoxyphenyl)-1-((4-(trifluoromethyl)phenyl)methyl)ethyl)-4-fluoro-1-naphthalenecarboxamide]", "melting point": "184 to 185"}, {"compound": "O=C(CCc1ccccc1)N[C@H](Cc1ccc(C(F)(F)F)cc1)[C@@H](O)c1cccc(Oc2ccccc2)c1", "note": "(racemic) [Example 208, N-((1RS,2SR)-2-hydroxy-2-(3-phenoxyphenyl)-1-((4-(trifluoromethyl)phenyl)methyl)ethyl)-3-phenylpropanamide]", "melting point": "134 to 135"}, {"compound": "O=C(N[C@H](Cc1ccc(C(F)(F)F)cc1)[C@@H](O)c1ccc(Oc2ccccc2)cc1)c1ccc(F)c2ccccc12", "note": "(racemic) [Example 209, N-((1RS,2SR)-2-hydroxy-2-(4-phenoxyphenyl)-1-((4-(trifluoromethyl)phenyl)methyl)ethyl)-4-fluoro-1-naphthalenecarboxamide]", "melting point": "205 to 210"}, {"compound": "O=C(CCc1ccccc1)N[C@H](Cc1ccc(C(F)(F)F)cc1)[C@@H](O)c1ccc(Oc2ccccc2)cc1", "note": "(racemic) [Example 211, N-((1RS,2SR)-2-hydroxy-2-(4-phenoxyphenyl)-1-((4-(trifluoromethyl)phenyl)methyl)ethyl)-3-phenylpropanamide]", "melting point": "133 to 134"}]}]}
